Laboratory results as given in the supplement of paper PMC10307832.

Tests used:
Test in all cases: relative viability (nuclei count vs DMSO), 5 days (fraction); higher = more cells survive
[1] = compound: CN(C)C[C@@H]1CCn2cc(c3ccccc32)C2=C(C(=O)NC2=O)c2cn(c3ccccc23)CCO1 [Ruboxistaurin] + NC(=O)Nc1cc(-c2cccc(F)c2)sc1C(=O)N[C@H]1CCCNC1 [AZD7762] (partner 0.2 µM)
Summary of the method: (§1)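 Relative viability is defined as nuclei in treated wells over nuclei in vehicle wells. Duplicate plates were run and medians reported. Lung cancer cell lines in 1536-well plates were dosed by pin tool one day after seeding, with one drug or with a fixed anchor-drug dose plus five library-drug doses (not always all listed) in √10 steps, and nuclei were counted after 5 days.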

[2] = compound: CN(C)C[C@@H]1CCn2cc(c3ccccc32)C2=C(C(=O)NC2=O)c2cn(c3ccccc23)CCO1 [Ruboxistaurin] + N=C(N)NC(=N)NCCc1ccccc1 [Phenformin] (partner 250 µM)
Summary of the method: as §1

[3] = compound: CN(C)C[C@@H]1CCn2cc(c3ccccc32)C2=C(C(=O)NC2=O)c2cn(c3ccccc23)CCO1 [Ruboxistaurin] + Cc1nc(NC(=O)N2CCC[C@H]2C(N)=O)sc1-c1ccnc(C(C)(C)C(F)(F)F)c1 [Alpelisib] (partner 2 µM)
Summary of the method: as §1

[4] = compound: CN(C)C[C@@H]1CCn2cc(c3ccccc32)C2=C(C(=O)NC2=O)c2cn(c3ccccc23)CCO1 [Ruboxistaurin] + Cc1nc(Nc2ncc(C(=O)Nc3c(C)cccc3Cl)s2)cc(N2CCN(CCO)CC2)n1 [Dasatinib] (partner 0.075 µM)
Summary of the method: as §1

[5] = compound: CN(C)C[C@@H]1CCn2cc(c3ccccc32)C2=C(C(=O)NC2=O)c2cn(c3ccccc23)CCO1 [Ruboxistaurin] + CS(=O)(=O)CCNCc1ccc(-c2ccc3ncnc(Nc4ccc(OCc5cccc(F)c5)c(Cl)c4)c3c2)o1 [Lapatinib] (partner 2 µM)
Summary of the method: as §1

| Cell Line | relative viability ([1]; first compound 0.08 µM) | relative viability ([1]; first compound 0.8 µM) | relative viability ([1]; first compound 2.53 µM) | relative viability ([1]; first compound 8 µM) | relative viability ([2]; first compound 0.08 µM) | relative viability ([2]; first compound 0.8 µM) | relative viability ([2]; first compound 2.53 µM) | relative viability ([2]; first compound 8 µM) | relative viability ([3]; first compound 0.08 µM) | relative viability ([3]; first compound 0.8 µM) | relative viability ([3]; first compound 2.53 µM) | relative viability ([3]; first compound 8 µM) | relative viability ([4]; first compound 0.08 µM) | relative viability ([4]; first compound 0.8 µM) | relative viability ([4]; first compound 2.53 µM) | relative viability ([4]; first compound 8 µM) | relative viability ([5]; first compound 0.08 µM) | relative viability ([5]; first compound 0.8 µM) | relative viability ([5]; first compound 2.53 µM) | relative viability ([5]; first compound 8 µM) |
| --- | --- | --- | --- | --- | --- | --- | --- | --- | --- | --- | --- | --- | --- | --- | --- | --- | --- | --- | --- | --- |
| NCI-H2170 | 0.901 | 0.783 | 0.95 | 0.964 | 0.443 | 0.429 | 0.458 | 0.474 | 0.82 | 0.716 | 0.823 | 0.694 | 0.592 | 0.61 | 0.489 | 0.519 | 0.243 | 0.241 | 0.263 | 0.251 |
| NCI-H2347 | 0.989 | 0.73 | 0.797 | 0.606 | 0.557 | 0.382 | 0.488 | 0.367 | 1.09 | 0.951 | 0.967 | 0.863 | 0.683 | 0.272 | 0.283 | 0.229 | 1.02 | 0.829 | 0.934 | 0.979 |
| NCI-H2405 | 0.817 | 0.701 | 0.8 | 0.715 | 0.427 | 0.391 | 0.414 | 0.38 | 0.936 | 0.681 | 0.775 | 0.835 | 0.184 | 0.239 | 0.174 | 0.222 | 1.3 | 1.01 | 1.19 | 1.05 |
